# Where a SMILES comes first, the peptide text is derived from it. [ ]: non-standard residue; d: D form. dPhe(4-Cl) = N[C@H](Cc1ccc(Cl)cc1)C(=O)O; d2Nal = N[C@H](Cc1ccc2ccccc2c1)C(=O)O; dCit = NC(=O)NCCC[C@@H](N)C(=O)O; d3Pal = N[C@H](Cc1cccnc1)C(=O)O
# System: edema of the face and extremities
# Test: edematogenic test of Schmidt, et al.
# Type: in vivo, rat
# Details: 1.5 mg/kg s.c. once a day on two consecutive days
# Description: In the edematogenic test of Schmidt, et al. (Contraception, 29, 283-289, 1984), however, a marked difference can be found between the control peptides and the peptides of the present invention. The control […] 1.50 mg/kg. No such reaction can be observed with the peptides of the present invention when given at a subcutaneous dose of 1.5 mg/kg.
# In the tests as run, the rats were assigned to three groups of […] per group per compound tested. Comparison was made with a known prior art compound designated ORG 30276 namely (N-Ac-D-p-Cl-Phe^1,2,D-Trp^3,D-Arg^6,D-Ala^10)-LHRH. The groups were injected subcuntaneously once a day on two consecutive days with the LHRH antagonists at a dose level of 1.5 mg/kg. One control group was injected with diluent only. The rats were observed during five hours each day. Reactions of the rats were classified as follows: NR no apparent reaction, PR partial responders: edema of the nasal and paranasal area, FR full responders: facial edema with edematous extremities.
compound,measurement,setting,value
"CC(=O)N[C@H](Cc1ccc2ccccc2c1)C(=O)N[C@H](Cc1ccc(Cl)cc1)C(=O)N[C@H](Cc1cccnc1)C(=O)N[C@@H](CO)C(=O)N[C@@H](Cc1ccc(O)cc1)C(=O)N[C@H](CCCNC(N)=O)C(=O)N[C@@H](CC(C)C)C(=O)N[C@@H](CCCNC(=N)N)C(=O)N1CCC[C@H]1C(=O)N[C@H](C)C(N)=O [EX XXVI, Ac-D-Nal-D-Phe(4-Cl)-D-Pal(3)-Ser-Tyr-D-Cit-Leu-Arg-Pro-D-AlaNH2] (Ac-[d2Nal][dPhe(4-Cl)][d3Pal]SY[dCit]LRP[dA]-NH2)","2nd Day PR (number of rats, partial responders: edema of the nasal and paranasal area)",* = very light edema of the face,0
same,"1st Day FR (number of rats, full responders: facial edema with edematous extremities)",observed five hours each day,0
same,"1st Day NR (number of rats, no apparent reaction)",observed five hours each day,8
same,"1st Day PR (number of rats, partial responders: edema of the nasal and paranasal area)",observed five hours each day,0
same,"2nd Day FR (number of rats, full responders: facial edema with edematous extremities)",observed five hours each day,0
same,"2nd Day NR (number of rats, no apparent reaction)",observed five hours each day,8

# From patent publication US5198533A, “LHRH antagonists” (The Administrators of the Tulane Educational Fund, priority 1988, dated 1993)
